Assay results as given in US5607966A, “Esters and amides of non-steroidal anti-inflammatory carboxylic acids which may be used as anti-oxidants, 5-lipoxygenase inhibitors and non-steroidal anti-inflammatory prodrugs” (Alcon Laboratories, Inc., priority 1994, dated 1997).
Blank lines part the entries; values can stand above or below the molecule they belong to.

Assays:
[1] = tested on: bovine retinal pieces; experiment: inhibition of lipid peroxide formation (TBARS) in bovine retinal pieces after hypoxia/reoxygenation; type: cell-based; conditions: hypoxia 1 hour, reoxygenated for 1 hour, agent added after 50 minutes of hypoxia
Procedure: The cytoprotective effects of the compounds were measured using bovine retinal pieces. Retinal tissues were incubated in hypoxic media for 1 hour. After 50 minutes of hypoxia, test agents were added to the media to allow 10 minutes for the drug to diffuse into the tissue prior to reoxygenation. The vehicle by itself, was added to the non-drug group. Following the incubation period, tissue was reoxygenated for 1 hour. Lipid peroxidation was assessed by the formation of thiobarbituric acid reacting substances (TBARS). The tissues were homogenized and added to the trichloroacetic acid-thiobarbituric acid reagent and heated in the presence of BHT. The homogenate was filtered and the absorbance of the supernant was measured spectrophotometrically. A double derivative technique was used to calculate the concentration of TBARS present in each sample. Quantitation was based on a molar extinction coefficient of 1.56×10^5.

[2] = biological target: T1, 5-lipoxygenase (Oryctolagus cuniculus, UniProt G1SNX0); experiment: 5-lipoxygenase inhibition (5-HETE and LTB4 formation) in A23187-stimulated rabbit neutrophils; type: cell-based, rabbit (New Zealand Albino); conditions: A23187 5.0 μM, arachidonic acid 52 μM, 3 minutes at 37° C.
T1 construct: neutrophils isolated from rabbit peripheral blood; endogenous in cells; host or cells: neutrophils from peripheral blood of New Zealand Albino rabbits
T1 sequence (G1SNX0 1-674): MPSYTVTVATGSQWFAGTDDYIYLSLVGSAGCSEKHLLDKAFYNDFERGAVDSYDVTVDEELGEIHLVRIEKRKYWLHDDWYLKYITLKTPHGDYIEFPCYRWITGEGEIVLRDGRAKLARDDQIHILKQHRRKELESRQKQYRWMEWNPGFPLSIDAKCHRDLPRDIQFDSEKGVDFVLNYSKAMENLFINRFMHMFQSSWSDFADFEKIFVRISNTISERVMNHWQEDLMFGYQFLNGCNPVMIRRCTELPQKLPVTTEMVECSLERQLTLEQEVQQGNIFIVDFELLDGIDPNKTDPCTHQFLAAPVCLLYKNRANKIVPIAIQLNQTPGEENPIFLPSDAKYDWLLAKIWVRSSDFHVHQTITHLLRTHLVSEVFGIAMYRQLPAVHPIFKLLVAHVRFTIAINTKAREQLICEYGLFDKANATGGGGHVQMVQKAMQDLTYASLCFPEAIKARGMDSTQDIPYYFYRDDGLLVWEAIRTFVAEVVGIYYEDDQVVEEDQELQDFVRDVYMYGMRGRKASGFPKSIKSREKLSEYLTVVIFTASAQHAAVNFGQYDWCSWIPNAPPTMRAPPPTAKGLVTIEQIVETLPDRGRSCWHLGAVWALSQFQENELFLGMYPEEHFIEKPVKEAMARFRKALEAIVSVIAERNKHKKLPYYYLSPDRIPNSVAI
Procedure: The 5-lipoxygenase inhibitor activity was determined by measuring the inhibition of 5-HETE and LTB4 formation. The ability of a compound to suppress 5-HETE and LTB4 formation was investigated in calcium ionophore (A23187)-stimulated neutrophils isolated from rabbit peripheral blood. Neutrophils were isolated by standard procedures. Briefly, heparinized/calcium chelated blood was obtained from New Zealand Albino (NZA) rabbits by heart puncture. Red cells were removed at 4° C. by dextran sedimentation,as described in Blood, volume 11, 436 (1956). White cells, contained in the supernatant fraction, were sedimented by centrifugation and contaminating red cells removed by hypotonic lysis. The white cell pellet obtained, following red cell lysis and centrifugation, was resuspended in Dulbecco's PBS (Ca^2+ /Mg^2+ -free) and layered onto a 60% Histopaque-1083®/40% Histopaque-1119® cushion (Sigma Chemical, St. Louis, Mo., U.S.A.). The Histopaque® cushion was then centrifuged, and the resulting neutrophil pellet was washed and resuspended in 1/25 of the original blood volume. Aliquots of the cell suspension were pretreated for 5 minutes at 37° C. with carrier (DMSO) or test article dissolved in DMSO. CaCl2 was immediately added to the cell suspension and cells stimulated by addition of 5 microliters [μl] of a mixture containing [1-^14 C]-arachidonic acid and A23187 in DMSO. […]

[3] = tested on: endotoxin-induced uveitis in female Lewis rats (neutrophil influx into ocular tissue); experiment: endotoxin-induced uveitis model, neutrophil influx (MPO activity) into the eye after topical administration; type: in vivo, rat (female Lewis); conditions: for % Inhibition of Influx: topical 5 μl to each eye, 24 hours post endotoxin; for inhibition of neutrophil influx into the rat eye (in words): endotoxin induced uveitis, following topical administration
Procedure: The topical ophthalmic activity of representative compounds of the present invention, as compared with dexamethasone, is shown in Table 5 below. The compounds were evaluated in an endotoxin-induced uveitis model. This subacute model of ocular inflammation is characterized by the infiltration of neutrophils into the ocular tissue following administration of an endotoxin.
Ocular inflammation in female Lewis rats was initiated by hindpaw injection of 0.1 milliliters [ml] sterile saline (0.9% NaCl, weight:volume [w:v]) containing […] bacterial endotoxin (LPS; Escherichia coli 055:B5). Test compound or vehicle (carbopol/maxidex), 5 μl, was administered topically to each eye of the experimental animal 20 and 24 hours prior to endotoxin injection, immediately before endotoxin injection, and 4 and 20 hours after endotoxin injection. Twenty-four hours post endotoxin injection, animals were sacrificed by CO2 inhalation, and total ocular polymorphonuclear neutrophil (PMN) content was assessed indirectly by determination of myleoperoxide activity (MPO).
Ocular tissues were prepared for the quantification of neutrophil content as follows: Eyes were homogenized in 2.5 ml of ice-cold 50 mM phosphate/10mM N-ethylmaleimide buffer. The Brinkman homogenation probe was rinsed three (3) times with 2.5 ml of the same buffer and the probe washings were combined with the initial tissue homogenate. The homogenate was centrifuged for 30 minutes at 12,000×gravitational constant [g] at 4° C. The supernatant was discarded and the proteinaceous pellet was solubilized on 0.5 ml of ice-cold 0.5% hexadecyltrimethyl ammonium bromide (HTABr)/50 mM phosphate buffer (pH 6.0). The detergent-treated pellet homogenate was centrifuged at 4° C. for 30 minutes at 12,000×g and the supernatant collected and assayed for MPO activity in a buffer containing 50 mM phosphate/250 mM HTABr/250 μM hydrogen peroxide and 1.5 mM o-dianisidine (pH 6.0). o-Dianisidine oxidation was monitored spectrophotometrically at a wavelength of 460 nanometers [nm].

[4] = phospholipid oxidation assay (conjugate diene formation in liposomes, Fe+3/EDTA and ascorbate); type: biochemical; conditions: Fe+3/EDTA (167 μM) and ascorbate (167 μM), one hour
Procedure: Antioxidant activity was measured using a phospholipid oxidation assay. Liposomes were formed from dilineoleolylphosphocholine and the test compound. Free radical damage was induced by exposure to Fe^+3 /EDTA (167 micromolar [μM]) and ascorbate (167 μM). Oxidation was terminated after one hour by freezing in liquid nitrogen. Lyophilized samples were then dissolved in methanol or water. Oxidation was measured by conjugate diene formation, monitored using UV spectroscopy as described in Biochimica et Biophyica Acta, volume 1081, 181-187, (1991). The IC50 was calculated using the following non-linear regression algorithm: Y=A/[1+(B/X)^c ], wherein A=maximum, B=IC^50 and c=cooperativity or relative broadness of the curves. The minimum was assumed to be zero.

IC50 [4]: 2.23 µM
IC50 ([1]; Bos taurus): 0.006 µM
IC50 [2]: 1 µM
Molecule: COc1ccc2cc(C(C)C(=O)OCCC3(C)CCc4c(C)c(O)c(C)c(C)c4O3)ccc2c1 (stereo not drawn) [Compound D, 2-(6-hydroxy-2,5,7,8-tetramethyl-3,4-dihydro-2H-benzo[1,2-b]pyran-2yl)ethyl 2-(6-methoxy-2-naphthyl)propionate]
% Inhibition of Influx ([3]; concentration 1.0%): 40%
inhibition of neutrophil influx into the rat eye (in words) [3]: significantly inhibited neutrophil influx

IC50 ([1]; Bos taurus): 0.01 µM
Molecule: COc1ccc2cc(C(C)C(=O)OCC3(C)Cc4c(C)c(O)c(C)c(C)c4O3)ccc2c1 (stereo not drawn) [Compound E, 2-(5-hydroxy-2,4,6,7-tetramethyl-2,3-dihydro-benzo[1,2-b]furan-2-yl)methyl2-(6-methoxy-2-naphthyl)propionate]

IC50 [4]: 2.55 µM
Molecule: COc1ccc2cc(C(C)C(=O)OCCC3(C)Cc4c(C)c(O)c(C)c(C)c4O3)ccc2c1 (stereo not drawn) [Compound F, 2-(5-hydroxy-2,4,6,7-tetramethyl-2,3-dihydro-benzo[1,2-b]furan-2-yl)ethyl 2-(6-methoxy-2-naphthyl)propionate]

IC50 [4]: 4.42 µM
IC50 [1]: 5 µM
Molecule: Vitamin E [reference compound]

More lines, now with the values behind:

Molecule: COc1ccc2cc(C(C)C(=O)N(C)CC(O)c3ccc(O)c(O)c3)ccc2c1 (stereo not drawn) [Compound A, N-(2-(3,4-dihydroxyphenyl)-2-hydroxyethyl)-N-methyl 2-(6-methoxy-2-naphthyl)propionamide]
IC50 ([1]; Bos taurus): 0.15 µM
IC50 [2]: 4 µM
% Inhibition of Influx ([3]; concentration 0.1%): 40%
inhibition of neutrophil influx into the rat eye (in words) [3]: significantly inhibited neutrophil influx

Molecule: COc1ccc2cc(C(C)C(=O)OCC3(C)CCc4c(C)c(O)c(C)c(C)c4O3)ccc2c1 (stereo not drawn) [Compound B, 2-(6-hydroxy-2,5,7,8-tetramethyl-3,4-dihydro-2H-benzo[1,2-b]pyran-2-yl)methyl 2-(6-methoxy-2-naphthyl)propionate]
IC50 [4]: 1.16 µM

Molecule: C[C@@H]1C[C@H]2[C@@H]3CCC4=CC(=O)C=C[C@]4(C)[C@@]3(F)[C@@H](O)C[C@]2(C)[C@@]1(O)C(=O)CO [Dexamethasone, reference compound]
% Inhibition of Influx ([3]; concentration 0.1%): 93%
